From paper PMC10763817, “Development of dual enzyme responsive molecular AND logic gate” (Turkish Journal of Chemistry, 2021) come the findings set out here.

This assay deals with T1, tyrosinase (mushroom tyrosinase, EC 1.14.18.1).
T1 construct: gene PPO3; commercial native enzyme from mushroom (Sigma)
Briefly: fluorescence of released resorufin (ex […] nm, em […] nm), Lineweaver-Burk plot. The class given is biochemical. The settings on record: tyrosinase 3 U/mL alone, no esterase; 10-50 μM compound 2; PBS pH 7.4, 37 °C.

As usually defined, the Km is the concentration of substrate that gives half-maximal velocity.

Each structure is given as a SMILES string.

Turning to `CC(=O)Oc1cccc(COc2ccc3nc4ccc(=O)cc-4oc3c2)c1` [compound 2, 3-(((3-oxo-3H-phenoxazin-7-yl)oxy)methyl)phenyl acetate], the Km was determined as 44.3 µM.
